# Experimental data as given in patent publication US11571400B2, “ACAT1 inhibitors for treating cancer” (Shanghai Institutes for Biological Sciences, Chinese …, priority 2016, dated 2023).
# Experiments:
# [1] = test system: CD8+ T cells; assay: Cytokine and cytolytic granule production of CD8+ T cells stimulated with plate-bound anti-CD3/CD28; assay type: cell-based, mouse; conditions: pretreated with compound vs vehicle (DMSO); stimulated with 5 μg/ml plate-bound anti-CD3/CD28
# Protocol: Peripheral T cells were isolated from mouse spleen and draining lymph nodes by a CD8^+ or CD4^+ T cell negative selection kit (Stem cell). To analyse the tumour-infiltrating T cells, tumours were first digested by collagenase IV (sigma), and tumour-infiltrating leukocytes were isolated by 40-70% percoll (GE) gradient centrifugation. To measure the effector function of CD8^+ T cells, the isolated cells were first stimulated with 1 μM ionomycin and 50 ng/ml PMA for 4 hours in the presence of 5 μg/ml BFA, and then stained with PERCP-α-CD8a. Next, cells were fixed with 4% PFA and stained with FITC-α-Granzyme B, APC-α-IFNγ and PE-α-TNFα. In general, to gate the cytokine or granule producing cells, T cells without stimulation or stained with isotype control antibody were used as negative controls. This gating strategy is applicable for most of the flow cytometric analyses. To detect the MDSCs (myeloid-derived suppressor cells) in the tumour, the percoll isolated leukocyte were stained with α-CD45, α-CD11b and α-Ly6G (Gr1), the CD45^+ population was gated, after which the MDSC population (CD11b^+ Gr1^+) in CD45^+ were gated.
# (§1) CD8^+ T cells were pretreated with vehicle (dimethylsulfoxide, DMSO), CP-113,818 or K604. Then the cells were stimulated with 5 μg ml^−1 plate-bound anti-CD3/CD28, and cytokine and cytolytic granule production was studied. Cytotoxicity of OT-I CTLs pretreated with CP-113,818 or K604 or vehicle was also studied.
# [2] = test system: OT-I CTLs; assay: CD8+ T-cell (OT-I CTL) cytotoxicity against antigen-pulsed EL-4 cells, LDH release; assay type: cell-based, mouse; conditions: for cytotoxicity of CD8+ T cells: OT-I CTLs pretreated with compound vs vehicle
# Protocol: To generate mature Cytotoxic T lymphocytes (CTLs), splenocytes isolated from Acat1^CKO-OT-I mice or WT OT-I mice were stimulated with OVA257-264 (N4) for 3 days in the presence of 10 ng/ml IL-2. Cells were centrifuged and cultured in fresh medium containing 10 ng/ml IL-2 for 2 more days, after which most of the cells in the culture were CTLs. To measure CD8^+ T-cell cytotoxicity, EL-4 cells were pulsed with 2 nM antigenic peptide (N4, A2, T4, G4, R4 or Catnb) for 30 minutes. After washing EL-4 cells and CTLs three times with PBS, we mixed CTLs and antigen-pulsed EL-4 cells (1×10^5) in the killing medium (phenol free-RPMI 1640, 2% FBS), at the ratio of 1:1, 1:2 and 1:5, respectively. After 4 hours, the cytotoxic efficiency was measured by quantifying the release of endogenous lactate dehydrogenase (LDH) from EL-4 cells using a CytoTox 96 Non-Radioactive Cytotoxicity kit (Promega).
# as §1
# To study ACAT1 inhibitors in cancer immunotherapies in mice, melanoma-bearing mice were treated with a potent ACAT-1 inhibitor, avasimibe (Ava), or DMSO control, and tumour size and survival were studied. A combined therapy (avasimibe and anti-PD-1) or monotherapies (avasimibe or anti-PD-1) were also studied and compared in treating melanoma. In a lung cancer model, Lewis lung carcinoma-bearing mice were treated with avasimibe or DMSO control, and tumour multiplicity and survival were studied. Cytokine productions of stimulated human (h) CD8^+ T cells pretreated with avasimibe, CP-113,818, or DMSO. CTL cytotoxicity after avasimibe treatment was measured by the LDH assay. OT-I CTLs were pretreated with avasimibe or vehicle for 6 h and then incubated with EL-4 cells pulsed with OVA257-264 peptide for 4 h.
# [3] = test system: Lewis lung carcinoma (LLC); assay: Lewis lung carcinoma (LLC) model, avasimibe therapy; assay type: in vivo, mouse; conditions: avasimibe 15 mg/kg intraperitoneally every 3 days, Day 10 to Day 35, vs DMSO control
# Protocol: (§2) A combined therapy (avasimibe and anti-PD-1) or monotherapies (avasimibe or anti-PD-1) were also studied and compared in treating melanoma. In a lung cancer model, Lewis lung carcinoma-bearing mice were treated with avasimibe or DMSO control, and tumour multiplicity and survival were studied. […] CTL cytotoxicity after avasimibe treatment was measured by the LDH assay. OT-I CTLs were pretreated with avasimibe or vehicle for 6 h and then incubated with EL-4 cells pulsed with OVA257-264 peptide for 4 h.
# [4] = test system: B16F10 melanoma; assay: Skin melanoma mouse model (B16F10), avasimibe therapy; assay type: in vivo; conditions: melanoma-bearing mice; avasimibe 15 mg/kg intraperitoneally every 2 days from Day 10, vs DMSO control
# Protocol: as §2
# [5] = cited from earlier work
# [6] = test system: human CD8+ T cells; assay: Human CD8+ T-cell cytokine production; assay type: cell-based; conditions: PBMCs pretreated 12 hours, then plate-bound α-CD3/α-CD28 for 24 hours; vs DMSO
# Protocol: Human peripheral blood mononuclear cells (PBMCs) from healthy donators were stimulated with 5 μg/ml PHA (Sigma) for 2 days and then rested for 1 day. Cells were pretreated with vehicle (DMSO), CP113, 818 or avasimibe for 12 hours and then stimulated with plate-bound α-CD3 (5 μg/ml) and α-CD28 (5 μg/ml) antibodies for 24 hours. Intracellular staining and flow cytometry were used to assess cytokines production of CD8^+ T cells. […] A combined therapy (avasimibe and anti-PD-1) or monotherapies (avasimibe or anti-PD-1) were also studied and compared in treating melanoma. In a lung cancer model, Lewis lung carcinoma-bearing mice were treated with avasimibe or DMSO control, and tumour multiplicity and survival were studied. […] CTL cytotoxicity after avasimibe treatment was measured by the LDH assay. OT-I CTLs were pretreated with avasimibe or vehicle for 6 h and then incubated with EL-4 cells pulsed with OVA257-264 peptide for 4 h.
smiles,measurement,setting,value
"CCCCCCCC[C@H](SCCCCCC)C(=O)Nc1c(SC)cc(C)nc1SC [CP-113,818, (S)—N-(2,4-Bis(methylthio)-6-methylpyridin-3-yl)-2-(hexylthio)decanoic acid amide]",cytolytic granule and cytokine productions of CD8+ T cells,[1],augmented
same,cytotoxicity of CD8+ T cells,[2],augmented
"CSc1cc(C)nc(SC)c1NC(=O)CN1CCN(CCSc2nc3ccccc3[nH]2)CC1 [K604, 2-[4-[2-(benzimidazol-2-ylthio)ethyl]piperazin-1yl]-N-[2,4-bis(methylthio)-6-methyl-3-pyridyl]acetamide]",cytolytic granule and cytokine productions of CD8+ T cells,[1],augmented
same,cytotoxicity of CD8+ T cells,[2],augmented
CC[C@H](C)C(=O)O[C@H]1C[C@@H](C)C=C2C=C[C@H](C)[C@H](CC[C@@H]3C[C@@H](O)CC(=O)O3)[C@H]21 [Lovastatin],cytolytic granule and cytokine productions of CD8+ T cells,[1],significantly decreased
CCN(CC)CCO[C@H]1CC[C@@]2(C)C(=CC[C@@H]3[C@@H]2CC[C@]2(C)C(=O)CC[C@@H]32)C1 [U18666A],cytolytic granule and cytokine productions of CD8+ T cells,[1],significantly decreased
"CC(C)c1cc(C(C)C)c(CC(=O)NS(=O)(=O)Oc2c(C(C)C)cccc2C(C)C)c(C(C)C)c1 [avasimibe, [2,6-di(propan-2-yl)phenyl] N-[2-[2,4,6-tri(propan-2-yl)phenyl]acetyl]sulfamate]",antitumor effect in Lewis lung carcinoma (tumour multiplicity and survival),[3],good antitumor effect
same,survival time,[4],prolonged
same,tumour growth,[4],inhibited
same,well tolerated dose,"[5]; adult human subjects, four times daily (i.e., 3000 mg/day), Kharbanda et al (2005)",≥ 750 mg
same,human safety profile,[5]; clinical trials for treating atherosclerosis,good human safety profile
same,cytokine production of human CD8+ T cells,[6],enhanced
same,effector function of mouse CD8+ T cells ex vivo,"[2]; OT-I CTLs pretreated with avasimibe or vehicle for 6 h, EL-4 cells pulsed with OVA257-264 for 4 h, LDH assay",enhance
